For ten compounds, GI50 and TGI results are on record in PubChem BioAssay (NCI).

Holding throughout (experiment): NCI anticancer screen, dose series, 48 h
The test system of test [1] is ACHN renal.
Test [2] relates to DU-145 prostate.
In test [3] the test system is SK-OV-3 ovarian.
Test [4] has as its system RXF 393 renal.
Test [5] relates to UACC-257 melanoma.
The test system of test [6] is NCI-H23 lung.
In test [7] the test system is MDA-MB-435.
For test [8], the system named is SK-MEL-28 melanoma.

Values joined by “and” are separate entries in the source; they are usually repeats but may differ in a detail not shown here. Identical values can stand only once.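 Results reflect a 48-hour exposure of cells in 96-well plates to compound at five concentrations. At the GI50, growth is halved. TGI is the concentration that stops growth completely.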 Bounds are passed on as bounds.

For `O=C(c1ccccc1)c1nc2ccc(C(F)(F)F)cc2nc1N1CCN(c2ccccc2)CC1`, the GI50 in test [1] was 21.6 µM; in test [2], 57.6 µM; in test [3] it was above 100 µM; in test [4], 35.5 µM; in test [5] it was 94.9 µM; in test [6], 25.7 µM. Besides, the GI50 in test [7] is 35.6 µM. Also, the TGI in test [1] was 53.7 µM; in test [2], above 100 µM; in test [3], above 100 µM; in test [4], above 100 µM; in test [5], above 100 µM; in test [6], 69.5 µM. In test [7], this compound had a TGI above 100 µM.
`COc1cc(CCC(=O)NC[C@@H](O)c2ccccc2)ccc1O`: the GI50 in test [1], in test [2], in test [3], in test [4], in test [5] and in test [6] was above 100 µM in each case. The GI50 in test [7] was above 100 µM. The TGI in test [1], in test [2], in test [3], in test [4], in test [5] and in test [6] was above 100 µM each time. Besides, in test [7], the TGI was above 100 µM.
Regarding `O=C1CC(CC(OCc2ccccc2)C(OCc2ccccc2)C(COCc2ccccc2)OCc2ccccc2)CC(=O)N1` (stereo unspecified), the GI50 in test [8] is > 100 µM and 21.4 µM; in test [1], > 100 µM and 18.2 µM; in test [2], > 100 µM and 27.1 µM; in test [4] it was 24.5 µM and 2.72 µM; in test [5] it was > 100 µM and 16.3 µM; in test [6], > 100 µM and 18.6 µM. The TGI in test [8] was above 100 µM; in test [1], above 100 µM; in test [2], above 100 µM; in test [4], > 100 µM and 15 µM; in test [5], > 100 µM and 36.4 µM; in test [6] it was above 100 µM. Moreover, in test [7], the TGI was > 100 µM and 21.7 µM.
As to `COc1ccc(Cn2cc3c(c2-c2cc(OC)c(OC)c(OC)c2)CCc2c(CO)noc2-3)cc1`, the GI50 is 4.35 µM in test [8]; 0.659 µM in test [1]; 0.361 µM in test [2]; 0.428 µM in test [3]; 16.5 µM in test [5]; 0.612 µM in test [6]. Further, the GI50 in test [7] was 0.0605 µM. Further, the TGI in test [8] was 24.5 µM; in test [1], 45 µM; in test [2], 16 µM; in test [3], 31.1 µM; in test [5] it was 50.2 µM; in test [6] it was 42.1 µM. In addition, the TGI in test [7] worked out at 0.245 µM.
Consider `Cc1c2c(nn1-c1ccc(S(=O)(=O)NC(=S)NC(=O)c3ccccc3)cc1)-c1ccccc1CC2`, for which the GI50 in test [8] was 41.1 µM; in test [1], 41 µM; in test [2] it was 23.9 µM; in test [3], above 100 µM; in test [5] it was 10.7 µM; in test [6], 53.9 µM. The GI50 in test [7] is 27.9 µM. The TGI in test [8] is above 100 µM; in test [1], above 100 µM; in test [2], above 100 µM; in test [3], above 100 µM; in test [5], 47.4 µM; in test [6], above 100 µM. The TGI in test [7] was 91.4 µM.
For `O=C1c2cc(F)ccc2-c2c1c1ccc([N+](=O)[O-])cc1c(=O)n2CCCBr`, the GI50 in test [8] is 69.6 µM; in test [1], 3.91 µM; in test [2] it was 3.38 µM; in test [3], 20.2 µM; in test [5] it was 13.1 µM; in test [6], 18.4 µM. Further, in test [7], the GI50 is 37.5 µM. Further, the TGI in test [8] is above 100 µM; in test [1], above 100 µM; in test [2], above 100 µM; in test [3] it was above 100 µM; in test [5], 82.6 µM; in test [6], 85.4 µM. Further, the TGI in test [7] was above 100 µM.
In the case of `CN1CCN(CCCN2c3ccccc3Sc3ccc(Cl)cc32)CC1`, the GI50 in test [1] was 5.93 µM; in test [2], 6.53 µM and 50.9 µM; in test [3] it was 6.93 µM. In addition, the TGI was 12.4 µM in test [1]; 13.5 µM and 94.6 µM in test [2]; 13.8 µM in test [3]; 12 µM in test [6]; 6.02 µM and 58.6 µM in test [7].
Regarding `COc1ccc(-c2[nH]nc(N)c2-c2cc(OC)c(OC)c(OC)c2)cc1`, the GI50 is 0.0806 µM in test [1]; 0.0354 µM in test [2]; 0.0417 µM in test [3]; 8.03 µM in test [5]; 0.0422 µM in test [6]; 0.0106 µM in test [7]. The TGI in test [1] was above 100 µM; in test [2], 1.76 µM; in test [3], 2.2 µM; in test [5] it was above 100 µM; in test [6] it was above 32.1 µM; in test [7] it was 0.0446 µM.
For `C=CC(=O)N1CC[C@H](n2nc(C#Cc3cc(OC)cc(OC)c3)c3c(N)ncnc32)C1`, the GI50 in test [8] was 21.9 µM; in test [1] it was 3.76 µM; in test [2], 7.56 µM; in test [4], 1.06 µM; in test [5], 10.8 µM; in test [6], 17.5 µM. Besides, the GI50 in test [7] was 10.6 µM. In addition, the TGI is above 100 µM in test [8]; above 100 µM in test [1]; above 100 µM in test [2]; 4.48 µM in test [4]; above 100 µM in test [5]; above 100 µM in test [6]. Also, the TGI in test [7] is above 100 µM.
Turning to `COc1cc2c(c(OC)c1OC)-c1c(c3ccc([N+](=O)[O-])cc3c(=O)n1CCCN)C2=O`, the GI50 in test [1] is 8.06 µM; in test [2] it was 7.27 µM; in test [3], 12.8 µM; in test [4] it was 2.05 µM; in test [5], 8.22 µM; in test [6], 2.35 µM. Further, the GI50 in test [7] was 0.865 µM. Also, the TGI was determined as 16.6 µM in test [1]; 16.6 µM in test [2]; 25.1 µM in test [3]; 3.86 µM in test [4]; 17 µM in test [5]; 10.2 µM in test [6]. In test [7], this compound came in with a TGI of 1.63 µM.
